According to patent US12570643B2, “3-aryloxy-3-five-membered heteroaryl propylamine compound, and crystal form and use thereof” (Shanghai Leado Pharmatech Co. Ltd., priority 2019, dated 2026):
Structures can show the parent of a compound that is named as a salt.

What was measured:
[1] = Stability study of crystal form A (HPLC purity, XRPD crystal form); assay type: physicochemical; conditions: initial purity 100
Protocol: About 10 mg of the crystal form A of the hydrochloride of the compound of formula I-1 was weighed and added into an HPLC vial, the bottle was sealed with a parafilm, 10 small holes were pierced in the film, and the vial was placed at 25° C./60% RH or 40° C./75% RH environment for 4 weeks, sampled in the first and fourth weeks respectively. Purity (using HPLC analysis) and crystal form (using X-ray powder diffraction analysis) of the samples were investigated.

[2] = Hygroscopicity by dynamic moisture absorption (DVS); assay type: physicochemical; conditions: 25° C./80RH
Protocol: Hygroscopicity was tested by dynamic moisture absorption (DVS) instrument. […] (Refer to the 2015 edition of the Chinese Pharmacopoeia (Guiding Principles for Drug Hygroscopicity Test)). • (2) Stability study of the crystal form A of the hydrochloride of the compound of formula I-1: […]

[3] = Neurocytotoxicity (CCK-8 cytotoxicity test); assay type: cell-based; conditions: human, SH-SY5Y cells
Protocol: (§1) HepG-2 and SH-SY5Y cells were prepared and placed in 10 cm dish and incubated at 37° C., 5% CO2 in a cell incubator; the cells were digested with trypsinize, resuspended and then counted. Based on a system of 100 μl/well, 8000 cells were transferred to a 96-well plate. The cells were incubated in a 37° C., 5% CO2 cell incubator for 24 hours; a gradient concentration system of compound I-1 (prepared in Example 2) was prepared, 2 times diluted, the system was 100 μl/well. The supernatant in the 96-well plate cell culture system on the first day was removed, and a fresh prepared drug concentration system was added to the corresponding culture plate wells culturing cells (set up duplicate wells). […] After completion of the culture, the supernatant was removed from the cell culture system of the 96-well plate, 100 μl of detection solution (medium containing 10% CCK-8) was add to each well, and incubated in a cell incubator at 37° C. and 5% CO2 for 1 hour, then taken it out and measured the absorbance at 450 nm with a microplate reader. Data were processed, cytotoxicity was calculated, and IC50 was calculated by GraphPad Prism. […]
(§2) A (dosing): absorbance of the well having cells, CCK-8 solution and drug solution
(§3) A (blank): absorbance of the well having medium and CCK-8 solution, without cells.
(§4) A (0 dosing): absorbance of the well having cells and CCK-8 solution, without drug solution […]

[4] = tested on: acetic acid writhing pain model in mice; assay: Acetic acid writhing pain model in mice; assay type: in vivo, ICR mice; conditions: acetic acid 1 hour after administration, normal saline group 49 times
Protocol: ICR mice, male, 22-25 g, were fasted for food 2 h before administration, but can have water. All ICR mice were weighed and randomly grouped with the number of animals>10 per group. […] The mice were administered via intragastric administration according to the weight of mice. 1.5% acetic acid solution (0.1 ml/10 g) was intraperitoneally injected at 1 hour after administration, and the number of times of visceral pain in each group within 30 minutes was observed, the mice were counted once when the abdomen was concave, the trunk and hind legs were extended and the hips were elevated, and the number of times of these phenomena occurred within 30 min was finally counted.

[5] = tested on: hot plate induced pain model in rat; assay: Hot plate induced pain model in rat; assay type: in vivo, Sprague-Dawley rats; conditions: 30 mg/kg intraperitoneal, hydrochloride used
Protocol: Male, mature and unmated healthy Sprague-Dawley rats were selected, and the temperature of the cold/hot plate (product model: PE34, US IITC) was adjusted to a constant temperature of 53±0.1° C., and rats with painful response such as foot licking, foot shaking or slight jumping within 5-10 s were screened (abandoned those who evaded and jumped). […] The tested compound was freshly formulated on the day of administration. A 0.9% NaCl normal saline solution was prepared as a vehicle, an appropriate amount of the test compound was added to the required volume of normal saline, and the mixture was fully suspended to prepare the drug at a concentration of 1 mg/ml. […] The latency of thermal pain was measured at 0.5 h, 1 h and 2 h after drug administration. To avoid scalding the animals on the hot plate, the maximum latency was set to 30 s. The analgesic effect of each compound was evaluated using the maximum possible effect (MPE), i.e. MPE %=[(Post drug latency-baseline latency)/(30−baseline latency)]×100. Statistics of MPE % at different time points.

HepG2 cells = assay: Hepatocyte toxicity (CCK-8 cytotoxicity test); assay type: cell-based; conditions: Homo sapiens, 72 hours, read-out: hepatotoxicity (IC50)
Protocol: as §1, §2, §3, §4

[6] = tested on: formalin pain model in mice; assay: Formalin pain model in mice; assay type: in vivo, C57BL/6 mice; conditions: for licking time (s) in phase II (10-60 min): hydrochloride used, mice, blank Vehicle 349.55 ± 43.09
Description: 150 C57BL/6 mice (male, 9 weeks) were randomly divided into 15 groups with 10 mice for each group, and were used for the analgesic activity test of 3 compounds in the formalin pain model in mice: the compound I-1 group (compound I-1 prepared in Example 2, its hydrochloride was used in the experiment), the S-duloxetine group (its hydrochloride was used in the experiment) and the compound C1 group (compound C1 prepared in Comparative Example 1, its hydrochloride was used in the experiment), respectively. Before the start of the experiment, the mice were allowed to adapt to the experimental environment for 72 hours, during which there was no need to fast for food or water. The tested drugs were administrated by intraperitoneal injection, and the doses were as follows: • The compound I-1 group: blank Vehicle (blank normal saline control), 0.1 mg/kg, 0.5 mg/kg, 1 mg/kg, 5 mg/kg and 10 mg/kg; • The S-duloxetine group: blank Vehicle (blank normal saline control), 1 mg/kg, 5 mg/kg, 10 mg/kg and 20 mg/kg; • The Compound C1 group: blank Vehicle (blank normal saline control), 0.1 mg/kg, 0.5 mg/kg, 1 mg/kg, 5 mg/kg and 10 mg/kg.
After the administration, the mice were placed in a transparent, ventilated plexiglass cylinder, and 1 hour later, 20 μl of 4% formalin solution was injected into the left hind foot plantar of each group of mice with a micro-injector, and foot pain response in mice were recorded in real time with a miniature camera. The length of time of licking the left foot was used as an indicator of pain response, the licking time were observed and recorded during two periods of 0-10 min (phase I) and 10-60 min (phase II) respectively, for statistical analysis, and the half effective dose (ED50) of the 3 compounds were calculated: ED50 refers to the drug dose that reduces the licking time by half compared with the blank control group. The smaller the ED50 value is, the lower the effective analgesic dose of the compound is and the better its analgesic effect is.

SNL model in rat = assay: SNL model in rat, mechanical hyperalgesia test; assay type: in vivo, SD rats; conditions: 10 mg/kg intragastric, 1 hour after administration, hydrochloride used; control group 3.967 ± 0.775
Protocol: SD rats were taken for surgery, male, SPF grade, mass 150 g-180 g. The surgical procedure was performed aseptically. The animals were anesthetized with sodium pentobarbital (50 mg/kg, intraperitoneal injection). The surgical area of the waist of animals was shaved, and the skin was disinfected three times with iodophor and 70% ethanol. Start the operation after the skin was dry. A longitudinal incision was made in the posterior part of the sacral bone of the animal's waist with a scalpel to expose the left paravertebral muscles, and the muscle tissue was separated with a distractor to expose the vertebra. The left spinal nerves L5 and L6 were separated, ligated with 6-0 silk thread, and the wounds were sutured. After the surgery, the animals were placed on an electric blanket and injected subcutaneously with 5 mL normal saline to prevent dehydration. When the animal was completely awake (free to move), put the animal back into the cage.
After the surgery, the animals were adapted in the experimental environment for 15 minutes/day for 3 days.
After administration, mechanical hyperalgesia test was performed. The rats were placed individually in a plexiglas box with a grid at the bottom of the box to ensure that the feet of the rats can be tested. Rats would adapt for 15 minutes before the test. […] The rapid paw withdrawal of the animal during the test was recorded as a pain response. The paw withdrawal of the animal when the test fiber left the animal's skin was also recorded as a pain response. If the animal moved or walked, it will not be recorded as a pain response, the test should be repeated. […]
Mechanical hyperalgesia was expressed as the paw withdrawal threshold (PWT) in the behavioral test of rats, which was calculated according to the following equation: 50% response threshold (g)=(10(^Xf+kδ))/10,000 • Xf=the final test fiber value used in the test • K=table value • δ=Average difference
Data were collected using Excel software and analyzed using Prism 6.01 (Graph pad software, Inc.) software.

Purity (area %) ([1]; 25° C./60% RH, 1 week) | Purity (area %) ([1]; 25° C./60% RH, 4 weeks) | Purity (area %) ([1]; 40° C./75% RH, 1 week) | Purity (area %) ([1]; 40° C./75% RH, 4 weeks) | weight change (hygroscopicity, DVS) [2] | Compound | IC50 at 72 h [3] [µM] | number of visceral pains (writhing reactions) within 30 min ([4]; 10 mg/kg intragastric) [times] | number of visceral pains (writhing reactions) within 30 min ([4]; 20 mg/kg intragastric) [times] | MPE % ([5]; 0.5 h) [%] | MPE % ([5]; 1 h) [%] | MPE % ([5]; 2 h) [%] | IC50 (HepG2 cells) [µM] | licking time (s) in phase II (10-60 min) ([6]; 1 mg/kg intraperitoneal) [s] | licking time (s) in phase II (10-60 min) ([6]; 5 mg/kg intraperitoneal) [s] | licking time (s) in phase II (10-60 min) ([6]; 10 mg/kg intraperitoneal) [s] | licking time (s) in phase II (10-60 min) ([6]; 20 mg/kg intraperitoneal) [s] | ED50 ([6]; Mus musculus, ip, intraperitoneal, phase II (10-60 min), dose that halves licking time vs blank control, read-out: analgesic potency ED50 in phase II pain) [mg/kg] | PWT (SNL model in rat) [g]
100 | 100 | 100 | 100 | less than 0.2% | CNCC[C@@H](Oc1cccc2ccoc12)c1cccs1 [Crystal form A of the hydrochloride] |  |  |  |  |  |  |  |  |  |  |  |  | 
 |  |  |  |  | CNCC[C@H](Oc1cccc2ccccc12)c1cccs1 [S-duloxetine] | 28.6 | 27 | 21 | 5.75 ± 5.74 | 7.44 ± 5.12 | 13.53 ± 4.99 | 33.3 | 259.97 ± 64.44 | 230.49 ± 41.31 | 162.83 ± 36.27 | 72.27 ± 17.29 | 8 | 6.519 ± 2.226
